Values of other authors, collected in patent EP1228757B1 (Uni-Pharma Kleon Tsetis Pharmaceutical Laboratories S.A., priority 2001, dated 2002).

Tested on: albino rats
Conditions: endo-peritoneally administered to albino rats

Row | Compound | LD50
1 | Glycerol formal | 3000 mg/kg
2 | CC(O)CO (centres unmarked) [Propylene glycol] | higher than 8000 mg/kg
